We go through 3 compounds from US5728726A, “Method and compositions for inhibiting protein kinases” (Cor Therapeutics, Inc., priority 1995, dated 1998).

The structures appear in SMILES notation. Where two headings read alike, the source gives them in different places. Where only a bound is given, the exact number is not on record here.

One series concerns HS68. Briefly: cell proliferation under normal tissue culture conditions, HS68. Conditions: Homo sapiens, Hs68, 96 h, read-out: IC50 HS68.
The next series has as its target Protein Kinase A (PKA) (Homo sapiens, UniProt P17612). Description: Protein Kinase A non-radioactive kinase assay (UBI).
The next series concerns the target human beta PDGFR (Homo sapiens, UniProt P09619). Description: beta PDGF receptor autophosphorylation in HR5 cells.
Another series has as its system CCD18. Description: cell proliferation under normal tissue culture conditions, CCD18. It counts as cell-based. The following applies: Homo sapiens, read-out: IC50 CCD18.
The test system of series [1] is human cell lines (HS68, HS 27, CCD18, and WS1). Briefly: cells.
Another series relates to HS27. Briefly: cell proliferation under normal tissue culture conditions, HS27. The following applies: Homo sapiens, read-out: IC50 HS27. It is filed as cell-based.
A further series deals with T1, human FGF receptor-1 (Homo sapiens, UniProt P11362).
T1 construct: expressed in transfected cells; host or cells: CHO cells
T1 sequence (P11362 22-822): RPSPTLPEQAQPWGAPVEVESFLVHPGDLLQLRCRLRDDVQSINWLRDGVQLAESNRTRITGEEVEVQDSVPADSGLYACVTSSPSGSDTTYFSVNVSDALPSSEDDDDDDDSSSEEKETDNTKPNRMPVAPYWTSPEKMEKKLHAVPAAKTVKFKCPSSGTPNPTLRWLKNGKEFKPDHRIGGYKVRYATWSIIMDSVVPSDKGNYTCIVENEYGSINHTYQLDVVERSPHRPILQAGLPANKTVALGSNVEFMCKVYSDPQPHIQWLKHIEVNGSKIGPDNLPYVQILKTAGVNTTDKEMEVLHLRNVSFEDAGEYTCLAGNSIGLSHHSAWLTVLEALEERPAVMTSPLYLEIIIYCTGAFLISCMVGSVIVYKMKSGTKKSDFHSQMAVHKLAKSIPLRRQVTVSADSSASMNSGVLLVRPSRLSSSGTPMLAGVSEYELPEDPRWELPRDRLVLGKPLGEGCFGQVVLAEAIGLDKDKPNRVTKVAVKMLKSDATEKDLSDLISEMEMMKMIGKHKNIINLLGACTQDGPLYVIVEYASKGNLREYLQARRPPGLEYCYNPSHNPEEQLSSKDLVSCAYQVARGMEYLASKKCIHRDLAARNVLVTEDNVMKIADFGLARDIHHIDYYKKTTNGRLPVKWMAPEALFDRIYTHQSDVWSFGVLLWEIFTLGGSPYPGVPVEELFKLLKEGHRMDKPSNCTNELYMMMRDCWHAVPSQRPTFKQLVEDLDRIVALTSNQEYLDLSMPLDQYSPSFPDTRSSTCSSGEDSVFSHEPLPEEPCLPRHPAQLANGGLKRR
Description: FGF receptor-1 autophosphorylation in CHO cells. It is filed as cell-based. As to the method: In order to measure FGF receptor-1 autophosphorylation, the human FGF receptor-1 cDNA was stably over-expressed in CHO cells using standard techniques. These cells were grown to confluency in RPMI with 10% fetal bovine serum, the media was replaced with serum-free RPMI and incubation continued for 18 hours prior to stimulation with BFGF (75 ng/ml) for 10 min at 37° C. in the absence of presence or PTK inhibitors in a concentration range of 0.1-30 μM Cell lysates were prepared under the same conditions as described above for the EGF receptor assay. Lysates were incubated with a monoclonal antibody directed against the FGF receptor-1 extracellular domain (prepared at COR Therapeutics, South San Francisco, Calif.) and the immunoprecipitated receptor was subjected to SDS-PAGE and Western blot analysis with antiphosphotyrosine antibodies as described above for EGF receptor.

Another series relates to HS68 cells. Description: PDGF BB-induced [3H]thymidine incorporation into HS68 cells. Conditions: Homo sapiens, Hs68, read-out: concentration blocking PDGF BB induced thymidine incorporation by 50%. It counts as cell-based. Here is the method:
[…]. Since there are many reports in the literature implicating PDGF in diseases such as glomerulonephritis, cancer, atherosclerosis, and restenosis we tested 292 for its ability to block PDGF induced cell proliferation. A human primary fibroblast cell line, HS68 (ATCC), was plated into 96 well dishes at 150,000 cells/well in media containing 10% fetal bovine serum in DMEM. The cells were incubated at 37° C. for 7-10 days at which time they had become confluent and quiescent. […] To determine the level of cell proliferation, […] of [^3 H ]thymidine were added to each well and incubation was continued for an additional 5 hours. Cells were then washed with 5% cold trichloroacetic acid (TCA), solubilized in 0.2N NaOH, 0.1% SDS and the amount of [^3 H]thymidine incorporation was determined. […].

Series [2] has as its system human cell lines (HS68, HS 27, CCD18, and WS1). The following applies: 96 hours.
Another series concerns WS1. Briefly: cell proliferation under normal tissue culture conditions, WS1. The following applies: Homo sapiens, read-out: IC50 WS1. It is filed as cell-based.
The test system of another series is Protein Kinase C (PKC). Description: Protein Kinase C non-radioactive kinase assay (UBI). Conditions: at a concentration of 40 μm.
In another series the target is recombinant c-src (Homo sapiens, UniProt P12931). Briefly: recombinant c-src kinase microtiter plate assay.
Sequence of recombinant c-src (P12931 whole entry): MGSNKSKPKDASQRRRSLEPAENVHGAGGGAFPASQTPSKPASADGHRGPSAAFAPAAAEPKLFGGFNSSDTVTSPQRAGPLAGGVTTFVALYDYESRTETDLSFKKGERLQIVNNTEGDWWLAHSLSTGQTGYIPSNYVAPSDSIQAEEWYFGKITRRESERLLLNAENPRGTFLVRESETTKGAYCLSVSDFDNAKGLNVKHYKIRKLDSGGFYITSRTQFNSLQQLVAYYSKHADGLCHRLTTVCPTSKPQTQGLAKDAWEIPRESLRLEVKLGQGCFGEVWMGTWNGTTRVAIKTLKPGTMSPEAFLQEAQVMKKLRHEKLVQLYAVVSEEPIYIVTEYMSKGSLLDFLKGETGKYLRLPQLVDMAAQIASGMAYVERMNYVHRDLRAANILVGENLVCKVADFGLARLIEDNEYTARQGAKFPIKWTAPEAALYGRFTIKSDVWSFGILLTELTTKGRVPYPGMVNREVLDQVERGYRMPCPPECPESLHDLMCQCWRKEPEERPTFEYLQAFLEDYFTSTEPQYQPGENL

Sequence of human beta PDGFR (P09619 33-1106): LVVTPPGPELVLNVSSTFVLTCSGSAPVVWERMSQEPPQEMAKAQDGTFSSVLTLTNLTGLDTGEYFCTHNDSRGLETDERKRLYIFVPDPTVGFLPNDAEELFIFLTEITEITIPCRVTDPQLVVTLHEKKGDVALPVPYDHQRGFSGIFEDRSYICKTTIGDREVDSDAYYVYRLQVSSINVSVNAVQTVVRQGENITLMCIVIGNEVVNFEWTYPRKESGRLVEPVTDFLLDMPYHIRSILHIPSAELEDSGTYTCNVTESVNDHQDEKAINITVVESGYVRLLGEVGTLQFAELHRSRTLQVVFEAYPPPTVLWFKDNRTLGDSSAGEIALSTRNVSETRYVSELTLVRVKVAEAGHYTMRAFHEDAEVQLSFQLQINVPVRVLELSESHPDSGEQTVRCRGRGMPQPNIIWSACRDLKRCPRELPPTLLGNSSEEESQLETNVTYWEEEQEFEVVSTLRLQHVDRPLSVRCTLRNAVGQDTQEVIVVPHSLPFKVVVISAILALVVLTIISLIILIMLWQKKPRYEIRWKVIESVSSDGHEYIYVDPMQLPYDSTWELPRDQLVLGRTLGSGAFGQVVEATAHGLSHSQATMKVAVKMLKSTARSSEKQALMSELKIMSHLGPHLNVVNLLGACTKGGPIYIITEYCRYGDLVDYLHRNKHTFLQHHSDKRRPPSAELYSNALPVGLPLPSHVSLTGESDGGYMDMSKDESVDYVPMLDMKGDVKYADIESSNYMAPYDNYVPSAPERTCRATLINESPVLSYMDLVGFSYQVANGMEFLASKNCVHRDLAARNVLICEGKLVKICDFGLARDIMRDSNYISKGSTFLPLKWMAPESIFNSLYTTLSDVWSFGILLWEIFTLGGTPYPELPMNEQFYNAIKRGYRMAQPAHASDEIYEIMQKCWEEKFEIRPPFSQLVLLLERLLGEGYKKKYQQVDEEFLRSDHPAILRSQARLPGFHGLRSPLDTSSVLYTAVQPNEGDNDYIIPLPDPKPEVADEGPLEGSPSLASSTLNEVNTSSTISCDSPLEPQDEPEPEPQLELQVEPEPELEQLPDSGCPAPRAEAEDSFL
Description for recombinant c-src: After a 20 minute incubation at 37° C., the reactions were stopped by adding 10 ul of 50% acetic acid, the wells were washed and anti-phosphotyrosine antibody was used to detect the tyrosine phosphorylated substrate under the same conditions as described above for the detection of phosphorylated PDGF receptor.

For the compound `COc1cc(O)c2c(c1)/C=C/C[C@H](O)[C@H](O)C(=O)/C=C\C[C@H](C)OC2=O` [Compound 292], the IC50 with HS68 was above 30000 nM; on Protein Kinase A (PKA), above 40000 nM; in the series on CCD18 (Table 3, 96 hours, 10% fetal bovine serum), above 30000 nM; in the series on HS27 (HS27, Table 3, 96 hours, 10% fetal bovine serum) it was above 30000 nM; against human FGF receptor-1 (Table 2, inhibition of protein kinase activity), above 30000 nM; in the series on HS68 cells it was 16 nM. For the same compound, the IC50 with WS1 (WS1, Table 3, 96 hours, 10% fetal bovine serum) is above 30000 nM. At Protein Kinase A (PKA) (at a concentration of 40 μm), the “reduction in PKA activity” value is on record as “did not achieve a 50% reduction”. In addition, the IC100 at human beta PDGFR (read-out: concentrations at which complete inhibition was observed) was above 0.2 µM. The inhibition at 30 µM in [1] (96 h, read-out: decrease in cell growth) was in the range of 10 to 20%. Also, the “inhibition of FGF receptor autophosphorylation” value against human FGF receptor-1 (concentrations as high as 30 μM) is on record as “no detectable inhibition”. In series [2] (concentrations up to 10 μm), the “decrease in cell growth of any of the cell lines tested” value is listed as “no decrease”. For the same compound, in the series on Protein Kinase C (PKC), the “reduction in PKC activity” value was “did not achieve a 50% reduction”.
For `COC(=O)[C@@]1(O)C[C@H]2O[C@]1(C)n1c3ccccc3c3c4c(c5c6ccccc6n2c5c31)C(=O)NC4` [Compound K252a, K252a, reference compound], the IC50 in the series with HS68 is 5000 nM; at Protein Kinase A (PKA), 70 nM; at Protein Kinase A (PKA) (IC50 PKA, Table 2, inhibition of protein kinase activity) it was 70 nM; at human beta PDGFR, 270 nM; in the series with CCD18 (96 h) it was 1000 nM; in [1] (read-out: concentration range inhibiting cell growth by 50%), 1000 to 12000 nM. Also, the IC50 in the series with HS27 (HS27, 96 h) stood at 12000 nM; on recombinant c-src it was 20 nM; in the series on WS1 (WS1, 96 h), 5000 nM.
With `CN[C@@H]1C[C@H]2O[C@@](C)([C@@H]1OC)n1c3ccccc3c3c4c(c5c6ccccc6n2c5c31)C(=O)NC4` [Staurosporin, reference compound], the “concentration completely blocking the growth of all of the cell lines” value in series [2] stood at 10 nM.
